Experimental data taken from patent publication US20170280720A1, “ARGININE […] INHIBITORS AND USES THEREOF” (EPIZYME, INC., priority 2014, published 2017).

molecular target: T1, Human CARM1 (PRMT4) (Homo sapiens, UniProt Q86X55); test: CARM1 biochemical assay (3H-SAM Flashplate, peptide substrate); conditions: read-out: CARM1_ IC50
T1 construct: Flag-CARM1-His; made in house; host or cells: HEK 293F cells (BacMam baculovirus, pFastBacMam)
T1 sequence (Q86X55 2-585 isoform Q86X55-1): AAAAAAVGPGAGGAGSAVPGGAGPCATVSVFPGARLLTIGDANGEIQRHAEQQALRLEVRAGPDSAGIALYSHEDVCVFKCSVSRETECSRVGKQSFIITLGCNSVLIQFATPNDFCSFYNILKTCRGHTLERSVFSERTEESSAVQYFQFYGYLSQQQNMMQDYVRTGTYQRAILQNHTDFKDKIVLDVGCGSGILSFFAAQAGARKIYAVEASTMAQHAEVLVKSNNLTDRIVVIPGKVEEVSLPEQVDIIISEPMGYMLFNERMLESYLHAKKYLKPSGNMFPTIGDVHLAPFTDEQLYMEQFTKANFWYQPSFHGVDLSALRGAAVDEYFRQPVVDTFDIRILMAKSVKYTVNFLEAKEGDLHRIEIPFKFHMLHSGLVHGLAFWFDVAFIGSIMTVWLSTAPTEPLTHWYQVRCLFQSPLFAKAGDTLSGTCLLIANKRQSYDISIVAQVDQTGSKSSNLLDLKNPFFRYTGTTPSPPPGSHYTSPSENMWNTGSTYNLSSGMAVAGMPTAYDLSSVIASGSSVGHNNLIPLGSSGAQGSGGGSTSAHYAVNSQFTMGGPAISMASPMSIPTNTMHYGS
Outline: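 FLAG/His-tagged human CARM1 (isoform 1, Δ539-561, baculovirus-expressed), 0.25 nM, preincubated 30 min at room temperature with compound (2% DMSO) in 20 mM Bicine pH 7.6, then reacted with 30 nM 3H-SAM and 250 nM biotinylated H3 16-30 peptide (R26 monomethyl). Stopped with 300 uM cold SAM; labelled peptide captured on streptavidin Flashplate; % inhibition versus DMSO and 1 mM SAH controls fitted to a 4- or 3-parameter curve.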

`Cc1cc(C)c(CNC(=O)c2cc(-c3ccc(CNCCN(C)C)cc3)nc3c2cnn3C(C)C)c(=O)[nH]1` [Compound 359] was tested. Which IC50 did it give?
Its IC50 is 50000 nM.

Which IC50 does the source give for `CNCCN(C)Cc1cccc(-c2cc(C(=O)NCCCCC(=O)NCc3c(C)cc(C)[nH]c3=O)c3cnn(C(C)C)c3n2)c1` [Compound 385] here?
The IC50 was 7.11 nM.

For `Cc1cc(C)c(CNC(=O)c2cc(-c3cccc(CNCCN)c3)nc3c2cnn3C(C)C)c(=O)[nH]1` [Compound 365], which IC50 is on record?
Its IC50 is 14.4 nM.

With `CNCCN(C)Cc1cccc(-c2nc(NCc3nccs3)c3cnn(C4CC4)c3n2)c1` [Compound 2] as the compound, how does the IC50 read?
Its IC50 is 16.8 nM.

Which IC50 does the source give for `Cc1cc(C)c(CNC(=O)c2cncc(-c3ccc(CN(C)CCN)cc3)c2)c(=O)[nH]1` [Compound 374] here?
Its IC50 is 9830 nM.

For `CC(C)n1ncc2c(C(=O)N(C)CC3CCOCC3)cc(-c3cccc(CN(C)CCN)c3)nc21` [Compound 256], which IC50 is on record?
Its IC50 is 63.1 nM.

With `CNCCN(C)Cc1cccc(-c2cc(C(=O)NCc3c(C)cc(C)[nH]c3=O)c(C)c3[nH]ncc23)c1` [Compound 372] as the compound, how does the IC50 read?
Its IC50 is 4310 nM.

`CNCCN(C)Cc1ccc(-c2cncc(C(=O)NCc3c(C)cc(C)[nH]c3=O)c2)cc1` [Compound 373] was tested. Which IC50 did it give?
Its IC50 is 5770 nM.

Which IC50 does the source give for `COc1nc(C)cc(C)c1CNC(=O)c1cc(-c2cccc(CNCCN)c2)nc2c1cnn2C(C)C` [Compound 391] here?
The IC50 was 141 nM.

Which IC50 does the source give for `CNCCN(C)Cc1cccc(-c2cc(C(=O)NCCCC(=O)NCc3c(C)cc(C)[nH]c3=O)c3cnn(C(C)C)c3n2)c1` [Compound 383] here?
The IC50 was 8.39 nM.

For `CNCCN(C)Cc1ccc(-c2cc(C(=O)NCc3c(C)cc(C)[nH]c3=O)c(C)c3nn(C4CCCC4)cc23)cc1` [Compound 370], which IC50 is on record?
The IC50 was 7260 nM.

Which IC50 does the source give for `CNCCN(C)Cc1cccc(-c2nc(C(=O)NCc3cn4ccsc4n3)c3cnn(C4CC4)c3n2)c1` [Compound 180] here?
Its IC50 is 8.9 nM.

For `Cc1cc(C)c(CNC(=O)c2cncc(-c3ccc(CNCCN)cc3)c2)c(=O)[nH]1` [Compound 379], which IC50 is on record?
The IC50 was 6570 nM.

How did the IC50 turn out when `CN(CCN)Cc1cccc(-c2ccc(C(=O)NCC3CCOCC3)c(N(C)CC3CC3)c2)c1` [Compound 263] was run?
Its IC50 is 72.2 nM.

For `Cc1cc(C)c(CNC(=O)c2cncc(-c3ccc(CN(C)CCN(C)C)cc3)c2)c(=O)[nH]1` [Compound 378], which IC50 is on record?
Its IC50 is 19600 nM.

With `Cc1cc(C)c(CNC(=O)c2cc(-c3cccc(CN(C)CCN)c3)nc3c2cnn3C(C)C)c(=O)[nH]1` [Compound 360] as the compound, how does the IC50 read?
Its IC50 is 19.5 nM.

How did the IC50 turn out when `CNCCN(C)Cc1ccc(-c2cc(C(=O)NCc3c(C)cc(C)[nH]c3=O)c(C)c3n[nH]cc23)cc1` [Compound 362] was run?
The IC50 was 1980 nM.

Which IC50 does the source give for `CNCCN(C)Cc1cccc(-c2cc(C(=O)N(C)Cc3ccccn3)c3cnn(C(C)C)c3n2)c1` [Compound 300] here?
The IC50 was 205 nM.

With `CNCCN(C)Cc1cccc(-c2cc(C(=O)NCc3c(C)cc(C)[nH]c3=O)c3cnn(C(C)C)c3n2)c1` [Compound 368] as the compound, how does the IC50 read?
Its IC50 is 6.11 nM.

How did the IC50 turn out when `CNCCN(C)Cc1cccc(-c2cc(C(=O)NCc3ccncc3)c3cnn(C(C)C)c3n2)c1` [Compound 182] was run?
Its IC50 is 10.3 nM.

With `CNCCN(C)Cc1cccc(-c2cc(C(=O)NCCC(=O)NCc3c(C)cc(C)[nH]c3=O)c3cnn(C(C)C)c3n2)c1` [Compound 384] as the compound, how does the IC50 read?
Its IC50 is 18.8 nM.

With `Cc1cc(C)c(CNC(=O)c2cc(CNCCN(C)C)cc3c2cnn3C2CCCC2)c(=O)[nH]1` [Compound 371] as the compound, how does the IC50 read?
Its IC50 is 28300 nM.

How did the IC50 turn out when `Cc1cc(C)c(CNC(=O)c2cc(-c3cccc(CNCCN)c3)cc3[nH]ncc23)c(=O)[nH]1` [Compound 366] was run?
The IC50 was 1390 nM.

For `COc1nc(C)cc(C)c1CNC(=O)c1cc(-c2cccc(CN(C)CCN(C)C)c2)nc2c1cnn2C(C)C` [Compound 386], which IC50 is on record?
The IC50 was 209 nM.

With `CNCCN(C)Cc1cccc(-c2cc(C(=O)NCc3c(C)cc(C)[nH]c3=O)c3cnn(C(C)C)c3c2)c1` [Compound 367] as the compound, how does the IC50 read?
Its IC50 is 184 nM.

For `CNCCN(C)Cc1cccc(-c2cc(C(=O)NCCCCCC(=O)NCc3c(C)cc(C)[nH]c3=O)c3cnn(C(C)C)c3n2)c1` [Compound 382], which IC50 is on record?
Its IC50 is 9.01 nM.

With `Cc1cc(C)c(CNC(=O)c2cc(-c3cccc(CN(C)CCN(C)C)c3)nc3c2cnn3C(C)C)c(=O)[nH]1` [Compound 361] as the compound, how does the IC50 read?
Its IC50 is 254 nM.
